Measured values from publication PMC5354814, “In silico and in vitro drug screening identifies new therapeutic approaches for Ewing sarcoma” (Oncotarget, 2016).

Assays:
A673 = test: Hits validation, dose-response cell proliferation (CellTiter-Glo); format: cell-based; conditions: 12-point dose-response 50 μmol/L to 1 nmol/L, mean ± SD
Outline: (§1)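 Read-out is CellTiter-Glo luminescence, from which IC50 values were calculated for each drug. Wells held 750–1,500 cells plated the day before treatment, with drug concentrations spanning 1 nmol/L to 50 μmol/L and vehicle controls included.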

CHLA-258 = test: as above; format: cell-based; conditions: 12-point dose-response 50 μmol/L to 1 nmol/L, mean ± SD
Outline: as §1

COG-E-352 = test: as above; format: cell-based; conditions: 12-point dose-response 50 μmol/L to 1 nmol/L, mean ± SD
Outline: as §1

Hs 822.T. = test: as above; format: cell-based; conditions: control cell line, 12-point dose-response, mean ± SD
Outline: as §1

Hs 863.T. = test: as above; format: cell-based; conditions: control cell line, 12-point dose-response, mean ± SD
Outline: as §1

RD-ES = test: as above; format: cell-based; conditions: 12-point dose-response 50 μmol/L to 1 nmol/L, mean ± SD
Outline: as §1

SK-ES-1 = test: as above; format: cell-based; conditions: 12-point dose-response 50 μmol/L to 1 nmol/L, mean ± SD
Outline: as §1

TC-71 = test: as above; format: cell-based; conditions: 12-point dose-response 50 μmol/L to 1 nmol/L, mean ± SD
Outline: as §1

Hs 919.T. = test: as above; format: cell-based; conditions: control cell line, 12-point dose-response, mean ± SD
Outline: as §1

[1] = Formulation and PK studies of auranofin (blood gold, ICPMS); format: in vivo, BALB/c mice
Procedure: Ridaura® (auranofin) is typically delivered orally (capsules containing 3 mg auranofin) and has been repurposed in several clinical trials with limited results (i.e., clinicaltrials.gov identifier: NCT01419691, NCT02126527, and NCT02126527). […] Additionally, the ability to increase the dose of auranofin to achieve higher blood concentrations of gold was limited by dose-limiting gastrointestinal side effects (diarrhea, loose stools, nausea, vomiting and abdominal cramps). For our studies we dosed BALB/c mice orally at 10 mg/Kg with different formulations of auranofin suspensions prepared in 0.5% hydroxypropyl methyl cellulose to help assure dose uniformity. We compared the ground contents of Ridaura® capsules, the ground pure auranofin drug substance, auranofin suspension containing 0.5% sodium lauryl sulfate (a surfactant), auranofin suspensions with the pH adjusted to pH = 1, 4 and 7, auranofin suspension dosed into fasted versus high fat diet mice and finally a solution of auranofin prepared in 5% dimethyl sulfoxide (DMSO) with a pH = 1. Pharmacokinetic studies were conducted on all of these formulation variations. Blood samples from 3 mice at each time point (0, 1, 2, 4, 8, 12, 24, 48 and 96 hours) and the whole blood was assayed by ICPMS for gold.
We additionally studied dose accumulation of the gold by comparing a formulation of Ridaura® capsule contents as described above and dosing at 10 mg/Kg single dose versus dosing the mice once daily for 5 days. The PK study compared the gold content in whole blood samples as described above for the single dose versus the gold content in whole blood samples from the multidose arm with whole blood collected at the end of each 24 hour dosing period before the next dose (24, 48, 72, 96 and 120 hours) and then whole blood collected every 24 hours for 5 additional days (144, 168, 192, 216 and 240 hours) and assayed for gold content. The results of these formulation and PK studies are shown in Supplementary Table S2.
These findings led us to develop and assess injectable (i.v. and i.p.) formulations of auranofin. By defining maximum tolerated dose (MTD) following i.v. and i.p. administration of solution and suspension formulations of auranofin, our intent was to evaluate auranofin alone and in combination with ganetespib at MTD in mouse xenograft studies using the more convenient i.p. route of administration. Following administration of the solution formulation of auranofin i.v. and i.p., the maximum tolerated dose was estimated at 1 mg/kg and 6 mg/kg, respectively. Following a single i.p. suspension dose of auranofin, the maximum tolerated dose was 16 mg/kg. This dose was reduced to 12 mg/kg and dose tolerance was evaluated after 5 daily doses of auranofin suspension i.p. to determine the effects of the accumulation of gold in the blood due to the slow elimination of gold. Based on the i.p. suspension dose tolerance studies, the auranofin suspension formulation and dose level of 12 mg/kg was selected for evaluation in xenograft mouse studies.

[2] = Dissociation of auranofin in plasma, whole blood and simulated gastric fluid; format: in vitro ADME; conditions: unpublished results
mouse lymphoma = system: mouse lymphoma; set-up: method as in ref 18, ref 19; conditions: 313 to 700 ng/mL, in the presence of a rat liver microsomal preparation; cited from earlier work
Saccharomyces = system: Saccharomyces; set-up: method as in ref 18, ref 19; conditions: cited from earlier work
mouse L929 fibroblasts = system: mouse L929 fibroblasts; set-up: method as in ref 19 (a number printed in a supplementary file, which may have a reference list of its own: not looked up in the article's list); conditions: 1µM auranofin; cited from earlier work
[3] = set-up: method as in ref 19 (a number printed in a supplementary file, which may have a reference list of its own: not looked up in the article's list); conditions: cited from earlier work
[4] = set-up: method as in ref 19 (a number printed in a supplementary file, which may have a reference list of its own: not looked up in the article's list); conditions: rats, cited from earlier work
[5] = Suspension, single 10 mg/kg Oral

## CC(=O)OC[C@H]1O[C@@H]([S-])[C@H](OC(C)=O)[C@@H](OC(C)=O)[C@@H]1OC(C)=O.CCP(CC)CC.[Au+] [Auranofin, auranofin]
A673
  IC50: 330 ± 220 nM
CHLA-258
  IC50: 380 ± 190 nM
COG-E-352
  IC50: 820 ± 190 nM
Hs 822.T.
  IC50: 1450 ± 90 nM
Hs 863.T.
  IC50: 3250 ± 120 nM
RD-ES
  IC50: 2450 ± 520 nM
SK-ES-1
  IC50: 80 nM
TC-71
  IC50: 260 ± 140 nM
Hs 919.T.
  IC50: 5380 ± 890 nM
[1]; Solution, five daily 4 mg/kg IP
  Cmax: 10384 ng/mL
[1]; Solution, single 4 mg/kg IP
  AUC (0 to ∞): 210.336 µg·h/mL
  Cmax: 4071 ng/mL
  Half Life: 29.7 h
  Tmax: 1 h
[1]; Suspension, five daily 10 mg/kg Oral
  Cmax: 5780 ng/mL
[1]; [5]
  AUC (0 to ∞): 187.7 µg·h/mL
  Cmax: 3680 ng/mL
  Half Life: 28.4 h
  Tmax: 24 h
[1]; Suspension, single 12 mg/kg IP
  AUC (0 to ∞): 550.846 µg·h/mL
  Cmax: 13068 ng/mL
  Half Life: 26.4 h
  Tmax: 1 h
[1]; oral 10 mg/kg, various suspensions and a solution
  effect of oral formulation variations on amount of gold absorbed: unable to alter the amount of auranofin (gold) absorbed
[2]
  stability in plasma and whole blood ex vivo and simulated gastric fluid in vitro: immediately and completely dissociates
Mouse lymphoma
  mutation frequencies: induced increases in the mutation frequencies
Saccharomyces
  mutation effects: no m utation effects
Mouse L929 fibroblasts
  ADCC: inhibited
[3]
  effect on hemodynamic and electrocardiographic parameters, pulmonary function, CNS activity, gastric mucosa or endocrine system: no significant effect
[4]; oral 3.6, 12 and 23 mg/kg/day, 12 months
  chronic toxicity, histological examination: dose-related karyomegaly and cytomegaly of the renal tubular epithelial
[4]; oral 3.6, 12 and 36 mg/kg/day, 3 months
  subacute toxicity findings: Dose-related increase in salivation, decrease in hemoglobin
[4]; oral, 12 months, 23 mg/kg/day
  adenomas of the renal cortical tubular epithelium: occurred in 2 females in the high dose
